# Measurements as given in patent US20220024900A1, “Compounds and Their Use for Reducing Uric Acid Levels” (Acquist LLC, priority 2016, published 2022).
# Molecular target: xanthine oxidase (Homo sapiens, UniProt P47989)
# Assay: Fluorescence-based xanthine oxidase activity assay
# Assay type: biochemical
# Conditions: verbal rating
# Chain of xanthine oxidase (P47989 whole entry, species assumed): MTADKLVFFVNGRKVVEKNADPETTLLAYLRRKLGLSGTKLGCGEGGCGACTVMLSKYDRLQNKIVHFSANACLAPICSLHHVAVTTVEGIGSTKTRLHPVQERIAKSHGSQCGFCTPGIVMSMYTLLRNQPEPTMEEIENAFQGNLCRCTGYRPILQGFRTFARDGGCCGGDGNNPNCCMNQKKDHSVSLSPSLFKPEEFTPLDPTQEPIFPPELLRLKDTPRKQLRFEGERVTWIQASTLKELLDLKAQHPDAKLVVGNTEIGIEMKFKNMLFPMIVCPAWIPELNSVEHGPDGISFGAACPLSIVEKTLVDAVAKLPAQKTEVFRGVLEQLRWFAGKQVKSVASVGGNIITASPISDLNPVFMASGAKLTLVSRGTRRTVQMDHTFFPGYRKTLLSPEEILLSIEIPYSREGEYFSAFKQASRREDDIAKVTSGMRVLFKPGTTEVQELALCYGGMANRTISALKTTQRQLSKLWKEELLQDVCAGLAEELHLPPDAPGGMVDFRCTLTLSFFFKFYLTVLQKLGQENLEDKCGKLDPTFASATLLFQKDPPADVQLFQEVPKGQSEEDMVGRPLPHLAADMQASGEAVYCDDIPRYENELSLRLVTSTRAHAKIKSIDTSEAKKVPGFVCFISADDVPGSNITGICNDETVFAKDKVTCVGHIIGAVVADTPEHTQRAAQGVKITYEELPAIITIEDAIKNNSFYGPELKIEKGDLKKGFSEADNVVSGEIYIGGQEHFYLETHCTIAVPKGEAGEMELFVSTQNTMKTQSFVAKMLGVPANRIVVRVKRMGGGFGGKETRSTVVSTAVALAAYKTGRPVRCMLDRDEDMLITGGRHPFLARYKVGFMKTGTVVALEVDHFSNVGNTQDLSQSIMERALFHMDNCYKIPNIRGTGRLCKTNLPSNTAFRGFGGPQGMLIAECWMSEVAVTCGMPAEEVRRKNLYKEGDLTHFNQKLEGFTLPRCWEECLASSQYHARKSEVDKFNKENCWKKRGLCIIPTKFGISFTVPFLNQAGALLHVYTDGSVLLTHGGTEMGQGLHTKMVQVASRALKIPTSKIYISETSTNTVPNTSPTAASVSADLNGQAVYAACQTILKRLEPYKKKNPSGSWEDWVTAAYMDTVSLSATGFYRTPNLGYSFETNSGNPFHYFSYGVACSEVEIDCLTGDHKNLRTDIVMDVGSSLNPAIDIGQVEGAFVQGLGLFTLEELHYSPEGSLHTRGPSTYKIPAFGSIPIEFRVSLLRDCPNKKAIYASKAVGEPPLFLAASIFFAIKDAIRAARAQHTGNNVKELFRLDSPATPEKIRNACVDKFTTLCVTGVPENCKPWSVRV
row,Structure (SMILES),inhibition of xanthine oxidase compared to allopurinol
1,"COc1nc(O)c(C(=O)Nc2ccc(-c3cnn[nH]3)cc2)c(=O)[nH]1 [Formula (IIb), N-(4-(3H-1,2,3-triazol-4-yl)phenyl)-4-hydroxy-2-methoxy-6-oxo-1,6-dihydropyrimidine-5-carboxamide]",particularly potent inhibitors
2,"CC(C)Sc1nc(O)c(C(=O)Nc2ccc(-c3c[nH]nn3)cc2)c(=O)[nH]1 [Formula (IId), N-(4-(1H-1,2,3-triazol-5-yl)phenyl)-4-hydroxy-2-(isopropylthio)-6-oxo-1,6-dihydropyrimidine-5-carboxamide]",particularly potent inhibitors
3,"N=C(Nc1ccc(-c2cnn[nH]2)cc1)c1c(O)[nH]c(=O)[nH]c1=O [Formula (Ia), N-(4-(1H-1,2,3-triazol-4-yl)phenyl)-6-hydroxy-2,4-dioxo-1,2,3,4-tetrahydropyrimidine-5-carboximidamide]",particularly potent inhibitors
4,"O=c1[nH]c(O)c(/C(=N\O)Nc2ccc(-c3cnn[nH]3)cc2)c(=O)[nH]1 [Formula (Ic), (E)-N-(4-(1H-1,2,3-triazol-5-yl)phenyl)-N′-hydroxy-2,4,6-trioxohexahydro-pyrimidine-5-carboximidamide]",particularly potent inhibitors
5,"Cn1c(O)c(C(=N)Nc2ccc(-c3cnn[nH]3)cc2)c(=O)n(C)c1=O [Formula (If), N-(4-(1H-1,2,3-triazol-5-yl)phenyl)-6-hydroxy-1,3-dimethyl-2,4-dioxo-1,2,3,4-tetrahydropyrimidine-5-carboximidamide]",particularly potent inhibitors
6,"Cn1c(=O)[nH]c(O)c(C(=O)Nc2ccc(-c3cnn[nH]3)cc2)c1=O [Formula (Ig), N-(4-(1H-1,2,3-triazol-4-yl)phenyl)-2,4-dihydroxy-1-methyl-6-oxo-1,6-dihydropyrimidine-5-carboxamide]",particularly potent inhibitors
7,Cn1c(=O)[nH]c(O)c(C(=N)Nc2ccc(-c3cnn[nH]3)cc2)c1=O [Formula (Ih)],particularly potent inhibitors
8,"Nc1[nH]c(=O)[nH]c(=O)c1C(=O)Nc1ccc(-c2c[nH]nn2)cc1 [Formula (Ik), N-(4-(1H-1,2,3-triazol-5-yl)phenyl)-6-amino-2,4-dioxo-1,2,3,4-tetrahydropyrimidine-5-carboxamide]",particularly potent inhibitors
9,"O=c1[nH]c(=O)c2c(Nc3ccc(-c4cnn[nH]4)cc3)noc2[nH]1 [Formula (VIa), 3-((4-(1H-1,2,3-triazol-5-yl)phenyl)amino)isoxazolo[5,4-d]pyrimidine-4,6(5H,7H)-dione]",particularly potent inhibitors
10,"O=c1[nH]c(=O)c2c(Nc3ccc(-c4cnn[nH]4)cc3)n[nH]c2[nH]1 [Formula (VIb), 3-((4-(1H-1,2,3-triazol-5-yl)phenyl)amino)-1H-pyrazolo[3,4-d]pyrimidine-4,6(5H,7H)-dione]",particularly potent inhibitors
